According to patent publication US20250064789A1, “KETOAMIDE DERIVATIVES AND PHARMACEUTICAL USES THEREOF” (priority 2022, published 2025):

target: recombinant SARS-CoV-2 M^pro (Severe acute respiratory syndrome coronavirus 2 (2019-nCoV) (SARS-CoV-2), UniProt P0DTD1); assay: Inhibition of SARS-CoV-2 M^pro enzyme activity (fluorescent substrate assay); type: biochemical; conditions: inhibition of SARS-CoV-2 M^pro enzyme activity; values given in μM; read-out: IC50

Row | Compound | IC50 [µM]
1 | C[C@@H](NC(=O)C1CCC(F)(F)CC1)C(=O)N[C@H](Cc1ccccc1)C(=O)C(=O)NCc1ncccc1Cl [Compound 341] | 11.5 ± 3.79
2 | C[C@@H](OCc1ccccc1)C(=O)N[C@H](Cc1ccccc1)C(=O)C(=O)NCc1ncccc1Cl [Compound 34] | > 5
3 | C[C@@H](OCc1ccccc1)C(=O)N[C@H](Cc1ccccc1)C(=O)C(=O)NCc1ncccn1 [Compound 29] | > 5
4 | C[C@@H](OCc1ccccc1)C(=O)N[C@H](Cc1ccccc1)C(=O)C(=O)N(C)Cc1ccccn1 [Compound 41] | > 2.5
5 | O=C(NCc1nccs1)C(=O)[C@@H](Cc1ccccc1F)NC(=O)c1ccccc1 [Compound 464] | 3.5 ± 0.23
6 | C[C@@H](OCc1ccccc1)C(=O)N[C@H](Cc1ccccc1)C(=O)C(=O)N[C@H](C)c1ccccn1 [Compound 31] | > 5
7 | CN1CCC(C(=O)NC2(C(=O)N[C@H](Cc3ccccc3)C(=O)C(=O)NCc3ccccn3)CCC2)CC1=O (some centres unmarked) [Compound 189] | > 2.5
8 | O=C(NCc1ccccn1)C(=O)[C@@H](Cc1ccccc1)NC(=O)C1(NC(=O)N2CCC(F)(F)CC2)CC1 [Compound 300] | 2.43 ± 0.04
9 | COC[C@@H](NC(=O)C1CCCC(F)(F)C1)C(=O)N[C@H](Cc1ccccc1)C(=O)C(=O)NCc1nnc(C)o1 (some centres unmarked) [Compound 559] | > 2.5

same assay, conditions: inhibition of SARS-CoV-2 M^pro enzyme activity; values in nM; read-out: IC50

Row | Compound | IC50 [µM]
10 | C[C@@H](OCc1ccc(OC(F)(F)F)cc1)C(=O)N[C@H](Cc1ccccc1)C(=O)C(=O)NCc1ccccn1 [Compound 4] | 0.0204 ± 0.0018
11 | C[C@@H](NC(=O)C1CCC(F)(F)CC1)C(=O)N[C@H](Cc1ccccc1)C(=O)C(=O)NCc1ccncn1 [Compound 338] | 0.02 ± 0.0008
12 | O=C(CNC(=O)C1CCCCCC1)N[C@H](Cc1ccccc1)C(=O)C(=O)NCc1cscn1 [Compound 426] | 0.0094 ± 0.0001
13 | CC(C)(OCc1ccc(Cl)cc1)C(=O)N[C@H](Cc1ccccc1)C(=O)C(=O)NCc1ccc(Cl)cn1 [Compound 43] | 0.0202 ± 0.0025
14 | O=C(NCc1ccccn1)C(=O)[C@@H](Cc1ccccc1)NC(=O)C1(NC(=O)C2CC3CCC2C3)CCC1 (some centres unmarked) [Compound 214] | 0.0174 ± 0.0005
15 | (R)-3-((R)-2-(benzyloxy)propionamido)-N-((5-chloropyridin-2-yl)methyl)-4-(4-fluorophenyl)-2-oxobutyramide [Compound 52] | 0.0442 ± 0.0034
16 | C[C@@H](NC(=O)c1cnccn1)C(=O)N[C@H](Cc1ccccc1)C(=O)C(=O)NCc1ccccn1 [Compound 106] | 0.161 ± 0.0041
17 | O=C(COC1CCCC1)NC1(C(=O)N[C@H](Cc2ccccc2)C(=O)C(=O)NCc2ccccn2)CCC1 [Compound 207] | 0.0461 ± 0.0009
18 | COc1ccc(COC(C)(C)C(=O)N[C@H](Cc2ccccc2)C(=O)C(=O)NCc2ccccn2)cc1F [Compound 21] | 0.0269 ± 0.0039
19 | C[C@@H](NC(=O)c1ccc(Cl)cc1)C(=O)N[C@H](Cc1ccccc1)C(=O)C(=O)NCc1ccccn1 [Compound 144] | 0.019 ± 0.0003
20 | C[C@@H](NC(=O)[C@H]1CC(=O)N([C@@H](C)c2ccccc2)C1)C(=O)N[C@H](Cc1ccccc1)C(=O)C(=O)NCc1ccccn1 [Compound 122] | 0.2809 ± 0.0023
21 | C[C@@H](NC(=O)c1cc(F)cc(Cl)c1)C(=O)N[C@H](Cc1ccccc1)C(=O)C(=O)NCc1ccccn1 [Compound 101] | 0.0216 ± 0.0008
22 | O=C(CCC1CCC(F)(F)CC1)NC1(C(=O)N[C@H](Cc2ccccc2)C(=O)C(=O)NCc2ccccn2)CC1 [Compound 157] | 0.0125 ± 0.0005
23 | O=C(NCc1ccccn1)C(=O)[C@@H](Cc1ccccc1)NC(=O)[C@H]1CCCCN1C(=O)C1CCC(F)(F)CC1 [Compound 282] | 0.0134 ± 0.0004
24 | C[C@@H](NC(=O)C1CCS(=O)(=O)CC1)C(=O)N[C@H](Cc1ccccc1)C(=O)C(=O)NCc1ccccn1 [Compound 116] | 0.1301 ± 0.0004
25 | C[C@@H](NC(=O)c1cc(Cl)cc(OC(F)(F)F)c1)C(=O)N[C@H](Cc1ccccc1)C(=O)C(=O)NCc1nccs1 [Compound 383] | 0.0215 ± 0.0008
26 | C[C@@H](NC(=O)C(C)(C)c1ccccc1)C(=O)N[C@H](Cc1ccccc1)C(=O)C(=O)NCc1ccccn1 [Compound 73] | 0.0258 ± 0.0005
27 | O=C(CNC(=O)[C@@H]1C[C@@H]2[C@H](C1)C2(F)F)N[C@H](Cc1ccccc1)C(=O)C(=O)NCc1ccccn1 [Compound 152] | 0.0187 ± 0.0006
28 | O=C(NCc1nccs1)C(=O)[C@@H](Cc1ccccc1)NC(=O)C1(n2ccc(C3CCC(F)(F)CC3)n2)CC1 [Compound 512] | 0.0221 ± 0.0005

Row | Compound | IC50 [µM]
29 | C[C@@H](NC(=O)Cc1cc(F)cc(F)c1)C(=O)N[C@H](Cc1ccccc1)C(=O)C(=O)NCc1ccccn1 [Compound 79] | 0.0109 ± 0.0001
30 | CC(C)(C(=O)N[C@H](Cc1ccccc1)C(=O)C(=O)NCc1ccccn1)n1cc(-c2cccc(F)c2)cn1 [Compound 329] | 0.0194 ± 0.0018
31 | C[C@@H](NC(=O)COc1ccc(Cl)cc1)C(=O)N[C@H](Cc1ccccc1)C(=O)C(=O)NCc1ccccn1 [Compound 84] | 0.04 ± 0.0024
32 | O=C(NCc1nccs1)C(=O)[C@@H](Cc1ccccc1)NC(=O)[C@H]1CC(F)(F)CN1C(=O)CC1CCC(F)(F)CC1 [Compound 401] | 0.019 ± 0.0001
33 | O=C(NCc1ccccn1)C(=O)[C@@H](Cc1ccccc1)NC(=O)[C@H]1CCCCN1C(=O)CCC1CCC(F)(F)CC1 [Compound 285] | 0.0171 ± 0.0002
34 | O=C(NCc1nccs1)C(=O)[C@@H](Cc1ccccc1)NC(=O)[C@H]1COCCN1C(=O)CC1CCC(F)(F)CC1 [Compound 411] | 0.0155 ± 0.0001
35 | CC(C)(C(=O)N[C@H](Cc1ccccc1)C(=O)C(=O)NCc1ccccn1)n1cc(-c2ccc(F)cc2)cn1 [Compound 330] | 0.195 ± 0.0145
36 | N#Cc1cc(F)cc(-c2nc(CC(=O)N[C@H](Cc3ccccc3)C(=O)C(=O)NCc3nccs3)cs2)c1 [Compound 514] | 0.0568 ± 0.0004
37 | O=C(NCc1nccs1)C(=O)[C@@H](Cc1ccccc1)NC(=O)[C@H]1COCCN1C(=O)C1CCC(F)(F)C1 (some centres unmarked) [Compound 409] | 0.0366 ± 0.0004
38 | C[C@@H](NC(=O)C(C)(C)Sc1ccc(Cl)cc1Cl)C(=O)N[C@H](Cc1ccccc1)C(=O)C(=O)NCc1ccccn1 [Compound 95] | 0.0082 ± 0.0011
39 | O=C(Cn1cc(-c2cccc(OC(F)(F)F)c2)cn1)N[C@H](Cc1ccccc1)C(=O)C(=O)NCc1nccs1 [Compound 494] | 0.0825 ± 0.0037
40 | O=C(NCc1ccccn1)C(=O)[C@@H](Cc1ccccc1)NC(=O)C1[C@H]2CCC[C@H]2CN1C(=O)c1cc2cc(Cl)ccc2o1 (some centres unmarked) [Compound 256] | 0.0205 ± 0.0017
41 | O=C(NCc1nccs1)C(=O)[C@@H](Cc1ccccc1)NC(=O)C1(NC(=O)C2CCC(F)(F)CC2)CCCCC1 [Compound 542] | 0.0524 ± 0.007
42 | O=C(NCc1ccccn1)C(=O)[C@@H](Cc1ccccc1)NC(=O)C1(C(=O)Nc2ccc(F)cc2)CC1 [Compound 322] | 0.125 ± 0.006
43 | C[C@@H](NC(=O)C1CCC(F)(F)CC1)C(=O)N[C@H](Cc1ccc(F)cc1)C(=O)C(=O)NCc1ccccn1 [Compound 359] | 0.0364 ± 0.0019
44 | C[C@@H](NC(=O)NC1CCC(F)(F)CC1)C(=O)N[C@H](Cc1ccccc1)C(=O)C(=O)NCc1ccccn1 [Compound 295] | 0.0122
45 | CC(C)(C(=O)N[C@H](Cc1ccccc1)C(=O)C(=O)NCc1nccs1)n1cc(-c2cccc(F)c2)cn1 [Compound 528] | 0.0508 ± 0.001
46 | O=C(Cn1cc(-c2cccc(F)c2)cn1)N[C@H](Cc1ccccc1)C(=O)C(=O)NCc1nccs1 [Compound 492] | 0.0663 ± 0.0061
47 | CC(C)(C)C(NC(=O)C1CCC(F)(F)CC1)C(=O)N[C@H](Cc1ccccc1)C(=O)C(=O)NCc1ccccn1 (some centres unmarked) [Compound 237] | 0.132 ± 0.0044

Row | Compound | IC50 [µM]
48 | CC(C)(C(=O)NC1CCC(F)(F)CC1)C(=O)N[C@H](Cc1ccccc1)C(=O)C(=O)NCc1ccccn1 [Compound 323] | 0.0307 ± 0.0019
49 | O=C(CNC(=O)C1(F)CCCCC1)N[C@H](Cc1ccccc1)C(=O)C(=O)NCc1cscn1 [Compound 428] | 0.0171 ± 0.0001
50 | CC(C)[C@@H](NC(=O)C1CCC(F)(F)CC1)C(=O)N[C@H](Cc1ccccc1)C(=O)C(=O)NCc1nccs1 [Compound 536] | 0.0248 ± 0.0003
51 | C[C@@H](NC(=O)C1CCC(F)(F)CC1)C(=O)N[C@H](Cc1ccccc1)C(=O)C(=O)NCc1cc(Cl)ccn1 [Compound 343] | 0.0183 ± 0.0007
52 | O=C(CC1CCOCC1)NC1(C(=O)N[C@H](Cc2ccccc2)C(=O)C(=O)NCc2ccccn2)CCC1 [Compound 210] | 0.0207 ± 0.0011
53 | C[C@@H](NC(=O)C1CCC(F)(F)CC1)C(=O)N[C@H](Cc1ccccc1)C(=O)C(=O)NCc1ccc(C(F)(F)F)cn1 [Compound 344] | 0.8572 ± 0.0031
54 | O=C(NCc1nccs1)C(=O)[C@@H](Cc1ccccc1)NC(=O)C1(NC(=O)C2CCC(F)(F)CC2)CCC1 [Compound 539] | 0.0218 ± 0.0005
55 | C[C@@H](NC(=O)c1cc(F)cc(C#N)c1)C(=O)N[C@H](Cc1ccccc1)C(=O)C(=O)NCc1ccccn1 [Compound 105] | 0.0253 ± 0.0017
56 | N#Cc1ccc(C(=O)NCC(=O)N[C@H](Cc2ccccc2)C(=O)C(=O)NCc2ccccn2)cc1F [Compound 443] | 0.168 ± 0.0019
57 | C[C@@H](NC(=O)Cc1cc2ccccc2o1)C(=O)N[C@H](Cc1ccccc1)C(=O)C(=O)NCc1ccccn1 [Compound 62] | 0.0278 ± 0.0009
58 | C[C@@H](OCc1ccccc1F)C(=O)N[C@H](Cc1ccccc1)C(=O)C(=O)NCc1ccccn1 [Compound 6] | 0.0483 ± 0.0012
59 | C[C@@H](NC(=O)CC1CC1(F)F)C(=O)N[C@H](Cc1ccccc1)C(=O)C(=O)NCc1nccs1 (some centres unmarked) [Compound 376] | 0.0352 ± 0.0036
60 | C[C@@H](OCc1ccc(Cl)cc1)C(=O)N[C@H](Cc1ccccc1)C(=O)C(=O)NCc1ccccn1 [Compound 13] | 0.0143 ± 0.0004
61 | O=C(CC1CC(F)(F)C1)NC1(C(=O)N[C@H](Cc2ccccc2)C(=O)C(=O)NCc2nccs2)CC(F)(F)C1 [Compound 547] | 0.0251 ± 0.001
62 | O=C(NCc1ccccn1)C(=O)[C@@H](Cc1ccccc1)NC(=O)[C@H]1C[C@@H]2CCCC[C@@H]2N1C(=O)C1CCC(F)(F)CC1 [Compound 265] | 0.0156 ± 0.0001
63 | C[C@@H](NC(=O)c1cc(F)cc(Cl)c1)C(=O)N[C@H](Cc1ccccc1)C(=O)C(=O)NCc1ccc(Cl)cn1 [Compound 60] | 0.0249 ± 0.0001
64 | CC(C)(OCc1ccc(F)cc1)C(=O)N[C@H](Cc1ccccc1)C(=O)C(=O)NCc1ccccn1 [Compound 22] | 0.0186 ± 0.0017
65 | CC(C)C[C@@H](NC(=O)C1CCC(F)(F)CC1)C(=O)N[C@H](Cc1ccccc1)C(=O)C(=O)NCc1ccccn1 [Compound 219] | 0.0134 ± 0.0017
